Source: US8569327B2, “Phenanthroindolizidine derivative and NFκB inhibitor containing same as active ingredient” (Kabushiki Kaisha Yakult Honsha, priority 2008, dated 2013)
Marks after values point to notes of the source that are not given here.

Assays:
[1] = tested on: NFκB; experiment: Inhibitory action on the NFκB activity, luciferase assay in SW480/NRE-Luc cells; assay type: cell-based, human; conditions: for NFκB inhibitory activity IC50: SW480/NRE-Luc cells, compound 1 h then 50 ng/mL TNFα 4 h, luciferase; for IC50: Homo sapiens, SW480, read-out: NFκB inhibitory activity IC50
Summary of the method: (§1)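 Stable SW480 colon cancer lines carried luciferase driven by a 5× NFκB response element or by the SV40 promoter. Compound was added 1 h before 50 ng/mL TNFα, followed by 4 h culture at 37 °C; luminescence was read and IC50 taken as 50% inhibition of induced luciferase expression.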

[2] = tested on: SV40 promoter; experiment: SV40 promoter activity, luciferase assay in SW480/SV40-Luc cells; assay type: cell-based, human; conditions: for SV40 promoter inhibitory activity IC50: SW480/SV40-Luc cells, luciferase; for IC50: Homo sapiens, SW480, read-out: SV40 promoter inhibitory activity IC50
Summary of the method: as §1

[3] = tested on: human colon cancer HT-29 cells; experiment: Inhibitory action on the proliferation of HT-29 cells; assay type: cell-based; conditions: 96 hours, TetraColor ONE; for IC50: Homo sapiens, HT-29
Summary of the method: (§2)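 Cells seeded overnight (SW480 2000/well in 10% FBS/RPMI1640; A549, HT-29 1000/well in 10% FBS DMEM or DMEM F12 HAM), then compound-treated at 37 °C, 5% CO2 for 48 h (SW480) or 96 h (A549, HT-29). Viable cells counted by TetraColor ONE; IC50 for 50% proliferation inhibition.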

[4] = tested on: human colon cancer SW480 cells; experiment: Inhibitory action on the proliferation of SW480 cells; assay type: cell-based; conditions: 48 hours, TetraColor ONE; for IC50: Homo sapiens, SW480
Summary of the method: as §2

[5] = tested on: human non-small cell lung cancer A549 cells; experiment: Inhibitory action on the proliferation of A549 cells; assay type: cell-based; conditions: 96 hours, TetraColor ONE; for IC50: Homo sapiens, A549
Summary of the method: as §2

[6] = tested on: mouse fibrosarcoma Meth A cells; experiment: Antitumor effect in mice transplanted with mouse fibrosarcoma Meth A cells; assay type: in vivo; conditions: intravenous on days 1, 5, 9, tumor weight day 21, BALB/c mice
Protocol: The antitumor effect of the phenanthroindolizidine alkaloid compound of the present invention in vivo was studied using mice transplanted with mouse fibrosarcoma Meth A cells. Meth A cells were transplanted subcutaneously in the inguinal region of male 7-week-old BALB/c mice (2.5×10^5 cells/mouse). Subsequently, on days 1, 5, and 9, the compound of the present invention was intravenously administered. To a control group, physiological saline, a solvent, was administered. On day 21 after the cell transplantation, tumor was excised and measured for its weight, and subsequently a tumor growth-inhibition rate IR (%) was obtained by the following formula. Tumor growth-inhibition rate IR (%)=(1−the weight of the tumor in an administration group/the weight of the tumor in a control group)×100

[7] = tested on: mice transplanted with mouse fibrosarcoma Meth A cells; experiment: Animal toxicity test; assay type: in vivo; conditions: intravenous days 1, 5, 9, observed three weeks
Protocol: Also, the toxicity of known phenanthroindolizidine alkaloid compounds, namely (12aS,13S)-6,7-dimethoxy-9,10,11,12,12a,13-hexahydro-9a-aza-cyclopenta[b]triphenylene-3,13-diol (known compound 1; refer to WO01/023384) and (12aS,13S)-3,6,7-trimethoxy-9,10,11,12,12a,13-hexahydro-9a-aza-cyclopenta[b]triphenylene-13-ol (known compound 2; refer to Planta Med., 2002, 68: 186-188), was simultaneously studied. To a control group, a physiological saline solution, a solvent, was administered. As a result, as shown in the following Tables 35 and 36, all the mice survived in a group administered with the compound of the present invention.

Compound	NFκB inhibitory activity IC50 [1] [ng/mL]	SV40 promoter inhibitory activity IC50 [2] [ng/mL]	HT-29 proliferation inhibitory action IC50 [3] [ng/mL]	SW480 proliferation inhibitory action IC50 [4] [ng/mL]	A549 proliferation inhibitory action IC50 [5] [ng/mL]	Tumor growth inhibition rate IR ([6]; total dose 25 mg/kg)	Tumor growth inhibition rate IR ([6]; total dose 50 mg/kg) [%]	Mortality rate ([7]; total dose 25 mg/kg)	Mortality rate ([7]; total dose 50 mg/kg)	IC50 [1] [ng/mL]	IC50 [2] [ng/mL]	IC50 [3] [ng/mL]	IC50 [4] [ng/mL]	IC50 [5] [ng/mL]
COC(=O)CCC(=O)Oc1ccc2c3c(c4cc(OC)c(OC)cc4c2c1)CN1CCC[C@H]1[C@H]3O.Cl [Compound 16, succinic acid(12aS,13S)-13-hydroxy-6,7-dimethoxy-9,10,11,12,12a,13-hexahydro-9a-aza-cyclopenta[b]triphenylene-3-yl ester methyl ester hydrochloride]	0.37	>100	0.17	0.76	0.59	48.8* %	39.1	–	–	–	–	–	–	–
COC(=O)Oc1ccc2c3c(c4cc(OC)c(OC)cc4c2c1)CN1CCC[C@H]1[C@H]3O.Cl [Compound 17, carbonic acid(12aS,13S)-13-hydroxy-6,7-dimethoxy-9,10,11,12,12a,13-hexahydro-9a-aza-cyclopenta[b]triphenylene-3-yl ester methyl ester hydrochloride]	0.83	>100	0.067	0.63	0.53	54.2* %	50.0	–	–	–	–	–	–	–
COc1cc2c3c(c4ccc(OC(=O)N(C)C)cc4c2cc1OC)[C@H](O)[C@@H]1CCCN1C3.Cl [Compound 21, dimethyl-carbamic acid(12aS,13S)-13-hydroxy-6,7-dimethoxy-9,10,11,12,12a,13-hexahydro-9a-aza-cyclopenta[b]triphenylene-3-yl ester hydrochloride]	23.3	>10000	24.2	38.3	16.4	–	–	0/5	0/5	–	–	–	–	–
C#CCOC(=O)Oc1ccc2c3c(c4cc(OC)c(OC)cc4c2c1)CN1CCC[C@H]1[C@H]3O.Cl [Compound 27, carbonic acid(12aS,13S)-13-hydroxy-6,7-dimethoxy-9,10,11,12,12a,13-hexahydro-9a-aza-cyclopenta[b]triphenylene-3-yl ester-propyn-2-yl ester hydrochloride]	0.37	>10	0.055	0.66	0.025	–	–	0/5	0/5	–	–	–	–	–
CCOC(=O)Oc1ccc2c3c(c4cc(OC)c(OC)cc4c2c1)CN1CCC[C@H]1[C@H]3O.Cl [Compound 28, carbonic acid ethyl ester(12aS,13S)-13-hydroxy-6,7-dimethoxy-9,10,11,12,12a,13-hexahydro-9a-aza-cyclopenta[b]triphenylene-3-yl ester hydrochloride]	1.0	>10	0.064	0.65	0.037	–	–	0/5	0/5	–	–	–	–	–
COc1cc2c3c(c4cc(O)ccc4c2cc1OC)[C@H](O)[C@@H]1CCCN1C3.Cl [Compound 29, (12aS,13S)-6,7-dimethoxy-9,10,11,12,12a,13-hexahydro-9a-aza-cyclopenta[b]triphenylene-2,13-diol hydrochloride]	–	–	–	–	–	–	–	0/5	0/5	1.4	> 1000	2.5	4	1.7
COc1cc2c3c(c4ccc(F)cc4c2cc1OC)C[C@@H]1CCCN1C3.Cl [Compound 31, (S)-3-fluoro-6,7-dimethoxy-9,10,11,12,12a,13-hexahydro-9a-aza-cyclopenta[b]triphenylene hydrochloride]	–	–	–	–	–	–	–	0/5	0/5	28.8	> 1000	10.6	50.2	1.5
COc1cc2c3c(c4ccccc4c2cc1OC)C[C@@H]1CCCN1C3.Cl [Compound 32, (S)-6,7-dimethoxy-9,10,11,12,12a,13-hexahydro-9a-aza-cyclopenta[b]triphenylene hydrochloride]	–	–	–	–	–	–	–	0/5	0/5	27.8	> 100	3.1	39.3	0.7
COc1cc2c3c(c4cc(O)ccc4c2cc1OC)C[C@@H]1CCCN1C3.Cl [Compound 33, (S)-6,7-dimethoxy-9,10,11,12,12a,13-hexahydro-9a-aza-cyclopenta[b]triphenylene-2-ol hydrochloride]	–	–	–	–	–	–	–	0/5	0/5	5.3	> 100	6.4	10.8	0.97
COc1cc2c3c(c4ccc(OC(C)=O)cc4c2cc1OC)C[C@@H]1CCCN1C3.Cl [Compound 34, acetic acid(S)-6,7-dimethoxy-9,10,11,12,12a,13-hexahydro-9a-aza-cyclopenta[b]triphenylene-3-yl ester hydrochloride]	0.026	>100	0.52	0.042	0.18	–	–	0/5	0/5	–	–	–	–	–
COC(=O)CCC(=O)Oc1ccc2c3c(c4cc(OC)c(OC)cc4c2c1)CN1CCC[C@H]1C3.Cl [Compound 36, succinic acid(S)-6,7-dimethoxy-9,10,11,12,12a,13-hexahydro-9a-aza-cyclopenta[b]triphenylene-3-yl ester methyl ester hydrochloride]	0.64	>100	2.3	0.96	0.82	–	–	0/5	0/5	–	–	–	–	–
COC(=O)Oc1ccc2c3c(c4cc(OC)c(OC)cc4c2c1)CN1CCC[C@H]1C3.Cl [Compound 37, carbonic acid(S)-6,7-dimethoxy-9,10,11,12,12a,13-hexahydro-9a-aza-cyclopenta[b]triphenylene-3-yl ester methyl ester hydrochloride]	2.9	>100	1.6	0.68	0.65	–	–	0/5	0/5	–	–	–	–	–
COc1cc2c3c(c4ccc(OC(=O)c5ccco5)cc4c2cc1OC)C[C@@H]1CCCN1C3.Cl [Compound 38, furan-2-carboxylic acid(S)-6,7-dimethoxy-9,10,11,12,12a,13-hexahydro-9a-aza-cyclopenta[b]triphenylene-3-yl ester hydrochloride]	0.50	>1000	3.2	0.62	1.1	–	–	0/5	0/5	–	–	–	–	–
COc1cc2c3c(c4ccc(OC(=O)c5cccnc5)cc4c2cc1OC)C[C@@H]1CCCN1C3.Cl [Compound 39, nicotinic acid(S)-6,7-dimethoxy-9,10,11,12,12a,13-hexahydro-9a-aza-cyclopenta[b]triphenylene-3-yl ester hydrochloride]	2.2	>100	2.6	1.3	0.97	–	–	0/5	0/5	–	–	–	–	–
